Patent publication US20080095810A1, “Nanoparticles Of Chitosan And Polyethyleneglycol As A System For The Administration Of Biologically-Active Molecules” (Advanced In Vitro Cell Technologies, S.L., priority 2005, published 2008)

Assays:
[1] = tested on: streptozotocin diabetic male Wistar rats; experiment: blood sugar after intranasal administration of insulin formulations in diabetic rats; assay type: in vivo; details: 10 U/kg insulin intranasal, compared with acetate buffer or with chitosan-PEG nanoparticles
Protocol: To encapsulate insulin in the chitosan nanoparticles, 2.4 mg of insulin were previously dissolved in an NaOH solution to which 1.2 mL of TPP were later added. This mixture was later added to 3 mL of chitosan. After 5 min with magnetic stirring, the preparation was centrifuged at 10,000 g for 40 min. The supernatant was removed and the precipitate was dissolved in a buffer. For its part, the same process was carried out to prepare the chitosan-PEG nanoparticles, but adding 10 mg/mL of PEG 400 to 2 mg/mL of chitosan.
The rats were considered diabetic when the blood sugar concentration was greater than 400 mg/dl after three weeks of the treatment with streptozotocin.
Fasting rats were used to carry out this experiment. They were divided into different groups depending on the formulation which was to be administered to them. […]
To determine the blood glucose levels, blood samples were collected from the tail vein before the nasal administration and every quarter of an hour until 90 minutes were completed. […] The blood glucose level was immediately determined using a glucose analyzer (Prestige from Chronolyss). […]

diabetic rats = experiment: glycemic response to an oral glucose administration after intranasal insulin formulations; assay type: in vivo; details: 10 U/kg insulin intranasal, compared with acetate buffer
Protocol: Diabetic rats which had fasted overnight were used to carry out this experiment. Each of the preparations described in Example 7 was nasally administered to them. After one hour, each group of rats received an oral glucose administration of 2 g per each kg of body mass. The blood sugar was measured in blood from samples collected from the tail vein before the glucose administration and after 10, 20, 30, 60, 90 and 120 minutes.

insulin
effect on blood sugar (in words) [1]: did not significantly change the previous result | effect on glycemic response to oral glucose (in words) (diabetic rats): did not significantly change this result
